Laboratory results as given in US20110160196A1, “FACTOR XA INHIBITORS” (Millennium Pharmaceuticals, Inc., priority 2007, published 2011).

The compounds below were run against T1, human plasma protein factor Xa (Homo sapiens, UniProt P00742) (assay: Factor Xa IC50 determination (cleavage of paranitroanilide substrate S-2765)). Conditions: factor Xa 1 nM, S-2765 100 μM, Tris buffered saline pH 7.4, read at 405 nm.
T1 construct: The human plasma protein factor Xa was purchased; purchased Haematologic Technologies (Essex Junction, Vt.); host or cells: human plasma
T1 sequence (P00742 235-488 limits assumed): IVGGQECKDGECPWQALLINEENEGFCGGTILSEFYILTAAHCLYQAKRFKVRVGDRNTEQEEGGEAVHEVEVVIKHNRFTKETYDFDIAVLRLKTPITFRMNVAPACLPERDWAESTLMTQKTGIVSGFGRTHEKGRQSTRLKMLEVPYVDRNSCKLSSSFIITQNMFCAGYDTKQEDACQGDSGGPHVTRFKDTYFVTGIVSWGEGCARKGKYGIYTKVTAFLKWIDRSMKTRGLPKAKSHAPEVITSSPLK
T1 sequence (P00742 41-179 partner limits assumed): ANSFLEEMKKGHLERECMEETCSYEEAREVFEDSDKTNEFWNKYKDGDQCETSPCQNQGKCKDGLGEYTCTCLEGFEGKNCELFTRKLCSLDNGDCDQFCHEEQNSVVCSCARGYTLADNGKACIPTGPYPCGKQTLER
Format: biochemical
From the text: This example illustrates methods for evaluating the compounds of the invention, along with results obtained for such assays. The in vitro and in vivo human Factor Xa activities of the inventive compounds can be determined by various procedures known in the art, such as a test for their ability to inhibit the activity of human plasma Factor Xa. […] The IC50 value is the concentration (in nM) of the compound required to provide 50% inhibition of human Factor Xa proteolytic activity.
An in vitro assay for detecting and measuring inhibition activity against Factor Xa is as follows:
The substrate S-2765 (Z-D-Arg-Gly-Arg-pNA.HCl) was obtained from Diapharma (West Chester, Ohio).
The human plasma protein factor Xa was purchased from Haematologic Technologies (Essex Junction, Vt.).
All assays, which are performed in 96-well microtiter plates, measure proteolytic activity of the enzyme (factor Xa) by following cleavage of a paranitroanilide peptide substrate. The assay buffer used for proteolytic assays was Tris buffered saline (20 mM Tris, 150 mM NaCl, 5 mM CaCl2, 0.1% Bovine serum albumin (BSA), 5% Dimethly Sulfoxide (DMSO) pH 7.4). In a 96-well microtiter plate, inhibitor was serially diluted to give a range of final concentrations from 0.01 nM to 10 μM. Duplicate sets of wells were assayed and control wells without inhibitor were included. Enzyme was added to each well, (factor Xa concentration=1 nM), the plate was shaken for 5 seconds and then incubated for 5 minutes at room temperature. S-2765 was added (100 μM final) and the plate was shaken for 5 seconds (final volume in each well was 200 μl). The degree of substrate hydrolysis was measured at 405 nm on a Thermomax plate reader (Molecular Devices, Sunnyvale, Calif.) for 2 minutes. The initial velocities of substrate cleavage (mOD/min), for each range of inhibitor concentrations, were fitted to a four parameter equation using Softmax data analysis software. The parameter C, derived from the resulting curve-fit, corresponded to the concentration for half maximal inhibition (IC50).
Work on `CN(C)c1cc(-c2cc(-n3ccccc3=O)ccc2-n2cc(CNC(=O)c3ccc(Cl)s3)nn2)ccn1` [Compound 140, 5-Chloro-N-((1-(2-(2-(dimethylamino)pyridin-4-yl)-4-(2-oxopyridin-1(2H)-yl)phenyl)-1H-1,2,3-triazol-4-yl)methyl)thiophene-2-carboxamide] yielded an IC50 of at most 100 nM.
In the case of `O=C(NCc1cn(-c2ccc(-n3ccccc3=O)cc2OCCCN2C(=O)c3ccccc3C2=O)nn1)c1ccc(Cl)s1` [Compound 67, 5-Chloro-N-((1-(2-(3-(1,3-dioxoisoindolin-2-yl)propoxy)-4-(2-oxopyridin-1(2H)-yl)phenyl)-1H-1,2,3-triazol-4-yl)methyl)thiophene-2-carboxamide], the IC50 is reported as at most 100 nM.
Work on `O=C(NCc1cn(-c2ccc(-n3ccccc3=O)cc2C(=O)NCCCO)nn1)c1ccc(Cl)s1` [Compound 105, N-((1-(2-((3-Hydroxypropyl)carbamoyl)-4-(2-oxopyridin-1(2H)-yl)phenyl)-1H-1,2,3-triazol-4-yl)methyl)-5-chlorothiophene-2-carboxamide] yielded an IC50 of 100 to 500 nM.
`NC(=O)CNC(=O)c1cc(-n2ccccc2=O)ccc1-n1cc(CNC(=O)c2ccc(Cl)s2)nn1` [Compound 108, N-((1-(2-((2-Amino-2-oxoethyl)carbamoyl)-4-(2-oxopyridin-1(2H)-yl)phenyl)-1H-1,2,3-triazol-4-yl)methyl)-5-chlorothiophene-2-carboxamide] gave an IC50 of 100 to 500 nM.
Compound `O=C(NCc1cn(-c2ccc(-n3ccccc3=O)cc2OCc2nc3ccccc3[nH]2)nn1)c1ccc(Cl)s1` [Compound 173, N-((1-(2-((1H-Benzo[d]imidazol-2-yl)methoxy)-4-(2-oxopyridin-1(2H)-yl)phenyl)-1H-1,2,3-triazol-4-yl)methyl)-5-chlorothiophene-2-carboxamide] has an IC50 of at most 100 nM.
`O=C(NCc1cn(-c2ccc(-n3ccccc3=O)cc2OCc2ccc3ccccc3n2)nn1)c1ccc(Cl)s1` [Compound 170, 5-Chloro-N-((1-(4-(2-oxopyridin-1(2H)-yl)-2-(quinolin-2-ylmethoxy)phenyl)-1H-1,2,3-triazol-4-yl)methyl)thiophene-2-carboxamide] gave an IC50 of at most 100 nM.
For `O=C(NCc1cn(-c2ccc(-n3ccccc3=O)cc2OCCO)nn1)c1ccc(Cl)s1` [Compound 75, 5-Chloro-N-((1-(2-(2-hydroxyethoxy)-4-(2-oxopyridin-1(2H)-yl)phenyl)-1H-1,2,3-triazol-4-yl)methyl)thiophene-2-carboxamide], the IC50 was at most 100 nM.
`O=C(NCc1cn(-c2ccc(-n3ccccc3=O)cc2OCCn2cccn2)nn1)c1ccc(Cl)s1` [Compound 156, N-((1-(2-(2-(1H-Pyrazol-1-yl)ethoxy)-4-(2-oxopyridin-1(2H)-yl)phenyl)-1H-1,2,3-triazol-4-yl)methyl)-5-chlorothiophene-2-carboxamide] was tested, and the IC50 was at most 100 nM.
`COCCNC(=O)c1cc(-n2ccccc2=O)ccc1-n1cc(CNC(=O)c2ccc(Cl)s2)nn1` [Compound 106, N-((1-(2-((2-Methoxyethyl)carbamoyl)-4-(2-oxopyridin-1(2H)-yl)phenyl)-1H-1,2,3-triazol-4-yl)methyl)-5-chlorothiophene-2-carboxamide] was tested, and the IC50 was 100 to 500 nM.
Work on `O=C(NCc1cn(-c2ccc(-n3ccccc3=O)cc2N2CCSCC2)nn1)c1ccc(Cl)s1` [Compound 10, 5-Chloro-N-((1-(4-(2-oxopyridin-1(2H)-yl)-2-thiomorpholinophenyl)-1H-1,2,3-triazol-4-yl)methyl)thiophene-2-carboxamide] yielded an IC50 of at most 100 nM.
For `O=C1CN(C(=O)c2cc(-n3ccccc3=O)ccc2-n2cc(CNC(=O)c3ccc(Cl)s3)nn2)CCN1` [Compound 114, 5-Chloro-N-((1-(2-(2-oxopiperazine-4-carbonyl)-4-(2-oxopyridin-1(2H)-yl)phenyl)-1H-1,2,3-triazol-4-yl)methyl)thiophene-2-carboxamide], the IC50 was at most 100 nM.
`NCCNC(=O)c1cc(-n2ccccc2=O)ccc1-n1cc(CNC(=O)c2ccc(Cl)s2)nn1` [Compound 107, N-((1-(2-((2-Aminoethyl)carbamoyl)-4-(2-oxopyridin-1(2H)-yl)phenyl)-1H-1,2,3-triazol-4-yl)methyl)-5-chlorothiophene-2-carboxamide] was tested, and the IC50 was 100 to 500 nM.
`Cn1ccnc1COc1cc(-n2ccccc2=O)ccc1-n1cc(CNC(=O)c2ccc(Cl)s2)nn1` [Compound 176, 5-Chloro-N-((1-(2-((1-methyl-1H-imidazol-2-yl)methoxy)-4-(2-oxopyridin-1(2H)-yl)phenyl)-1H-1,2,3-triazol-4-yl)methyl)thiophene-2-carboxamide] showed an IC50 of at most 100 nM.
`O=C(NCc1cn(-c2ccc(-n3ccccc3=O)cc2Oc2ccncc2)nn1)c1ccc(Cl)s1` [Compound 63, 5-Chloro-N-((1-(4-(2-oxopyridin-1(2H)-yl)-2-(pyridin-4-yloxy)phenyl)-1H-1,2,3-triazol-4-yl)methyl)thiophene-2-carboxamide] showed an IC50 of at most 100 nM.
Work on `O=C(NCc1cn(-c2ccc(-n3ccccc3=O)cc2-c2ccnc(F)c2)nn1)c1ccc(Cl)s1` [Compound 134, 5-Chloro-N-((1-(2-(2-fluoropyridin-4-yl)-4-(2-oxopyridin-1(2H)-yl)phenyl)-1H-1,2,3-triazol-4-yl)methyl)thiophene-2-carboxamide] yielded an IC50 of at most 100 nM.
`O=C(NCc1cn(-c2ccc(-n3ccccc3=O)cc2C(=O)N2CCNCC2)nn1)c1ccc(Cl)s1` [Compound 113, 5-Chloro-N-((1-(4-(2-oxopyridin-1(2H)-yl)-2-(piperazine-1-carbonyl)phenyl)-1H-1,2,3-triazol-4-yl)methyl)thiophene-2-carboxamide] showed an IC50 of 100 to 500 nM.
`O=C(NCc1cn(-c2ccc(-n3ccccc3=O)cc2C(=O)NCCO)nn1)c1ccc(Cl)s1` [Compound 104, N-((1-(2-((2-Hydroxyethyl)carbamoyl)-4-(2-oxopyridin-1(2H)-yl)phenyl)-1H-1,2,3-triazol-4-yl)methyl)-5-chlorothiophene-2-carboxamide] showed an IC50 of 100 to 500 nM.
`O=C(NCc1cn(-c2ccc(-n3ccccc3=O)cc2C(=O)Nc2ccncc2)nn1)c1ccc(Cl)s1` [Compound 118, 5-Chloro-N-((1-(4-(2-oxopyridin-1(2H)-yl)-2-(pyridin-4-ylcarbamoyl)phenyl)-1H-1,2,3-triazol-4-yl)methyl)thiophene-2-carboxamide] was tested, and the IC50 was 100 to 500 nM.
With `O=C(NCc1cn(-c2ccc(-n3ccccc3=O)cc2C(=O)O)nn1)c1ccc(Cl)s1` [Compound 100, 2-(4-((2-Chlorothiophcne-5-carboxamido)methyl)-1H-1,2,3-triazol-1-yl)-5-(2-oxopyridin-1(2H)-yl)benzoic acid] the IC50 was 100 to 500 nM.
Compound `O=C(NCc1cn(-c2ccc(-n3ccccc3=O)cc2-c2ccncc2)nn1)c1ccc(Cl)s1` [Compound 125, 5-Chloro-N-((1-(4-(2-oxopyridin-1(2H)-yl)-2-(pyridin-4-yl)phenyl)-1H-1,2,3-triazol-4-yl)methyl)thiophene-2-carboxamide] has an IC50 of at most 100 nM.
With `O=C(NCc1cn(-c2ccc(-n3ccccc3=O)cc2OCCCOC(=O)N2CCOCC2)nn1)c1ccc(Cl)s1` [Compound 150, 3-(2-(4-((5-Chlorothiophene-2-carboxamido)methyl)-1H-1,2,3-triazol-1-yl)-5-(2-oxopyridin-1(2H)-yl)phenoxy)propyl morpholine-4-carboxylate] the IC50 was at most 100 nM.
With `O=C(NCc1cn(-c2ccc(-n3ccccc3=O)cc2-c2ccc(O)nc2)nn1)c1ccc(Cl)s1` [Compound 142, 5-Chloro-N-((1-(2-(6-hydroxypyridin-3-yl)-4-(2-oxopyridin-1(2H)-yl)phenyl)-1H-1,2,3-triazol-4-yl)methyl)thiophene-2-carboxamide] the IC50 was at most 100 nM.
For `CCOc1cc(-n2ccccc2=O)ccc1-n1cc(CNC(=O)c2ccc(Cl)s2)nn1` [Compound 164, 5-Chloro-N-((1-(2-ethoxy-4-(2-oxopyridin-1(2H)-yl)phenyl)-1H-1,2,3-triazol-4-yl)methyl)thiophene-2-carboxamide], the IC50 was at most 100 nM.
`Cc1cc(COc2cc(-n3ccccc3=O)ccc2-n2cc(CNC(=O)c3ccc(Cl)s3)nn2)no1` [Compound 179, 5-Chloro-N-((1-(2-((5-methylisoxazol-3-yl)methoxy)-4-(2-oxopyridin-1(2H)-yl)phenyl)-1H-1,2,3-triazol-4-yl)methyl)thiophene-2-carboxamide] gave an IC50 of at most 100 nM.
`O=C(NCc1cn(-c2ccc(-n3ccccc3=O)cc2N2CCCC2=O)nn1)c1ccc(Cl)s1` [Compound 43, 5-Chloro-N-((1-(4-(2-oxopyridin-1(2H)-yl)-2-(2-oxopyrrolidin-1-yl)phenyl)-1H-1,2,3-triazol-4-yl)methyl)thiophene-2-carboxamide] showed an IC50 of at most 100 nM.
Compound `O=C1CN(c2cc(-n3ccccc3=O)ccc2-n2cc(CNC(=O)c3ccc(Cl)s3)nn2)CCN1` [Compound 6, 5-Chloro-N-((1-(2-(3-oxopiperazin-1-yl)-4-(2-oxopyridin-1(2H)-yl)phenyl)-1H-1,2,3-triazol-4-yl)methyl)thiophene-2-carboxamide] has an IC50 of at most 100 nM.
